Assay results reported in publication PMC9030223, “MBP-11901 Inhibits Tumor Growth of Hepatocellular Carcinoma through Multitargeted Inhibition of Receptor Tyrosine Kinases” (Cancers, 2022).

Legend:
Experiment in all cases: CCK-8 cell proliferation/cytotoxicity assay
Format in all cases: cell-based
Hep3B = conditions: Homo sapiens, 24 h treatment
Experimental: (§1) Cell proliferation was detected using the Cell Counting Kit-8 (CCK-8, Cat. CK04-13; Dojindo Laboratories, Kumamoto, Japan) according to the manufacturer’s instruction. To evaluate cytotoxicity, cells were seeded in a 96-well plate (FHC, 1 × 10^4 cells/well; Caki-2, PLC/PFR.5, and MCF 10A, 1 × 10^4 cells/well; AML12, HepG2, Hep3B, and Huh-7 1.2 × 10^4 cells/well; HeLa, HEK-293, A549, and PC-3, 1.5 × 10^4 cells/well; HT-29, MCF-7, C6, and NE-4C, 2 × 10^4 cells/well). After attachment and stabilization of cells for 24 h, the medium was switched with fresh containing various concentrations (0, 1, 5, 10, 25, 50, and 100 μM) of MBP-11901, and cells were incubated for 22 h. Next, CCK-8 solution was added to each well, and cells were incubated for another 2 h. Absorbance was then measured at 450 nm using a microplate reader (SpectraMax i3, Molecular Devices, San Jose, CA, USA). The IC50 and log IC50 values were calculated using GraphPad Prism (version 5.02; GraphPad PRISM software Inc. San Diego, CA, USA). All experiments were independently performed 3 times. The graph of log IC50 values represents average values.

HepG2 = conditions: Homo sapiens; HepG2, 24 h treatment
Experimental: as §1

AML12 normal liver cells = conditions: Mus musculus, AML12, 24 h, 24 h treatment
Experimental: as §1

PLC/PRF5 = conditions: Homo sapiens, PLC-PRF-5; PLC/PRF5, 24 h treatment
Experimental: as §1

Huh-7 = conditions: Homo sapiens; Huh-7, 24 h treatment
Experimental: as §1

CNC(=O)c1cc(Oc2ccc(NC(=O)Nc3ccc(Cl)c(C(F)(F)F)c3)cc2)ccn1 [sorafenib, reference compound]
IC50 (Hep3B): 3.64 ± 0.99 µM | IC50 (HepG2): 3.85 ± 0.14 µM | IC50 (AML12 normal liver cells): 13.4 ± 2.77 µM | IC50 (PLC/PRF5): 6.81 ± 0.76 µM | IC50 (Huh-7): 6.47 ± 0.88 µM
